{
  "source": "patent US9427604B2",
  "about": "“Use of benzyloxy-ethylamine derivatives as a preservative, preservation method, and compositions” (L'OREAL, priority 2009, dated 2016)",
  "assay_type_in_all_cases": "cell-based",
  "conditions_in_all_cases": "7 days at 22° C.",
  "key": {"[1]": {"system": "Pseudomonas aeruginosa (Pa) ATCC 19429", "experiment": "Challenge test (artificial contamination) in aqueous solution, P. aeruginosa", "method": "(§1) The antimicrobial efficacy of compounds of formula (I) was evaluated via the challenge test or artificial contamination method after having introduced said compounds into water. The method of the challenge test consists of an artificial contamination of the sample with microbial strains from collection (bacteria, yeasts and moulds) and of an evaluation of the number of revivable microorganisms seven days after inoculation. […] 5 pure cultures of microorganisms are used. [table] The strains of gram−bacteria (Escherichia coli and Pseudomonas aeruginosa), gram+bacterium (Enterococcus faecalis), yeast (Candida albicans), and mould (Aspergillus niger) are inoculated into subculturing medium, respectively the day before inoculation for the bacteria and the yeast, and 5 days before inoculation for the mould. On the day of inoculation: • a suspension in tryptone salt diluent is prepared, respectively, for the bacteria and the yeast, so as to obtain by spectrophotometer a suspension with an optical density of between 35% and 45% of transmitted light at 544 nm; • for the mould, the spores are collected by washing the agar with 6 to 7 ml of harvesting solution and the suspension is recovered in a sterile tube or flask. After having homogenized the microbial suspension, 0.2 ml of inoculum (the suspensions are used pure: between 1×10^8 and 3×10^8 CFU per ml) are placed in each pill bottle and the microbial suspension is completely homogenized in the 20 g of product (=aqueous solution containing the compounds of formula (I) at the concentrations indicated) using a spatula. The content of microorganisms present in the product corresponds after homogenization to a concentration of 10^6 microorganisms per gram of product, i.e. inoculation to 1% of an inoculum containing 10^8 microorganisms per ml. After 7 days of contact time between the microorganisms and the product at 22° C.±2° C. and in the dark, ten-fold dilutions are carried out and the number of revivable microorganisms remaining in the product is counted."}, "[2]": {"system": "Aspergillus niger (An) ATCC 6275", "experiment": "Challenge test (artificial contamination) in aqueous solution, A. niger", "method": "as §1"}, "[3]": {"system": "Escherichia coli (Ec) ATCC 8739", "experiment": "Challenge test (artificial contamination) in aqueous solution, E. coli", "method": "as §1"}, "[4]": {"system": "Enterococcus faecalis (Ef) ATCC 33186", "experiment": "Challenge test (artificial contamination) in aqueous solution, E. faecalis", "method": "as §1"}, "[5]": {"system": "Candida albicans (Ca) ATCC 10231", "experiment": "Challenge test (artificial contamination) in aqueous solution, C. albicans", "method": "as §1"}, "[6]": {"conditions": "content 0.01% in water, final pH 7, inoculation level 10^6 microorganisms/g"}, "[7]": {"conditions": "content 0.05% in water, final pH 7, inoculation level 10^6 microorganisms/g"}, "[8]": {"conditions": "content 0.1% in water, final pH 7.2, inoculation level 10^6 microorganisms/g"}, "[9]": {"conditions": "content 0.25% in water, final pH 6.9, inoculation level 10^6 microorganisms/g"}, "[10]": {"conditions": "content 0.5% in water, final pH 7.4, inoculation level 10^6 microorganisms/g"}, "[11]": {"conditions": "content 0.75% in water, final pH 7.4, inoculation level 10^6 microorganisms/g"}, "[12]": {"conditions": "content 1% in water, final pH 7.5, inoculation level 10^6 microorganisms/g"}, "[13]": {"conditions": "content 1% in water, final pH 6.6, inoculation level 10^6 microorganisms/g"}},
  "data": [
    {"smiles": "Cl.NCCOCc1ccccc1", "note": "[Compound A]", "values": [
      {"measurement": "No. of CFU/gram of product at T7 days, P. aeruginosa", "setting": "[1]; [6]", "result": "9.0 × 10^6 CFU/gram of product"},
      {"measurement": "No. of CFU/gram of product at T7 days, P. aeruginosa", "setting": "[1]; [7]", "result": "1.9 × 10^6 CFU/gram of product"},
      {"measurement": "No. of CFU/gram of product at T7 days, P. aeruginosa", "setting": "[1]; [8]", "result": "1.5 × 10^5 CFU/gram of product"},
      {"measurement": "No. of CFU/gram of product at T7 days, P. aeruginosa", "setting": "[1]; [9]", "result": "3.0 × 10^3 CFU/gram of product"},
      {"measurement": "No. of CFU/gram of product at T7 days, P. aeruginosa", "setting": "[1]; [10]", "result": "<200 CFU/gram of product"},
      {"measurement": "No. of CFU/gram of product at T7 days, P. aeruginosa", "setting": "[1]; [11]", "result": "<200 CFU/gram of product"},
      {"measurement": "No. of CFU/gram of product at T7 days, P. aeruginosa", "setting": "[1]; [12]", "result": "<200 CFU/gram of product"},
      {"measurement": "No. of CFU/gram of product at T7 days, A. niger", "setting": "[2]; [6]", "result": "1.4 × 10^6 CFU/gram of product"},
      {"measurement": "No. of CFU/gram of product at T7 days, A. niger", "setting": "[2]; [7]", "result": "1.3 × 10^6 CFU/gram of product"},
      {"measurement": "No. of CFU/gram of product at T7 days, A. niger", "setting": "[2]; [8]", "result": "1.0 × 10^6 CFU/gram of product"},
      {"measurement": "No. of CFU/gram of product at T7 days, A. niger", "setting": "[2]; [9]", "result": "1.0 × 10^6 CFU/gram of product"},
      {"measurement": "No. of CFU/gram of product at T7 days, A. niger", "setting": "[2]; [10]", "result": "6.2 × 10^5 CFU/gram of product"},
      {"measurement": "No. of CFU/gram of product at T7 days, A. niger", "setting": "[2]; [11]", "result": "1.6 × 10^5 CFU/gram of product"},
      {"measurement": "No. of CFU/gram of product at T7 days, A. niger", "setting": "[2]; [12]", "result": "3.6 × 10^4 CFU/gram of product"},
      {"measurement": "No. of CFU/gram of product at T7 days, E. coli", "setting": "[3]; [6]", "result": "7.4 × 10^6 CFU/gram of product"},
      {"measurement": "No. of CFU/gram of product at T7 days, E. coli", "setting": "[3]; [7]", "result": "6.2 × 10^6 CFU/gram of product"},
      {"measurement": "No. of CFU/gram of product at T7 days, E. coli", "setting": "[3]; [8]", "result": "1.9 × 10^6 CFU/gram of product"},
      {"measurement": "No. of CFU/gram of product at T7 days, E. coli", "setting": "[3]; [9]", "result": "2.8 × 10^3 CFU/gram of product"},
      {"measurement": "No. of CFU/gram of product at T7 days, E. coli", "setting": "[3]; [10]", "result": "<200 CFU/gram of product"},
      {"measurement": "No. of CFU/gram of product at T7 days, E. coli", "setting": "[3]; [11]", "result": "<200 CFU/gram of product"},
      {"measurement": "No. of CFU/gram of product at T7 days, E. coli", "setting": "[3]; [12]", "result": "<200 CFU/gram of product"},
      {"measurement": "No. of CFU/gram of product at T7 days, E. faecalis", "setting": "[4]; [6]", "result": "4.1 × 10^5 CFU/gram of product"},
      {"measurement": "No. of CFU/gram of product at T7 days, E. faecalis", "setting": "[4]; [7]", "result": "3.3 × 10^5 CFU/gram of product"},
      {"measurement": "No. of CFU/gram of product at T7 days, E. faecalis", "setting": "[4]; [8]", "result": "6.9 × 10^4 CFU/gram of product"},
      {"measurement": "No. of CFU/gram of product at T7 days, E. faecalis", "setting": "[4]; [9]", "result": "1.2 × 10^3 CFU/gram of product"},
      {"measurement": "No. of CFU/gram of product at T7 days, E. faecalis", "setting": "[4]; [10]", "result": "<200 CFU/gram of product"},
      {"measurement": "No. of CFU/gram of product at T7 days, E. faecalis", "setting": "[4]; [11]", "result": "<200 CFU/gram of product"},
      {"measurement": "No. of CFU/gram of product at T7 days, E. faecalis", "setting": "[4]; [12]", "result": "<200 CFU/gram of product"},
      {"measurement": "No. of CFU/gram of product at T7 days, C. albicans", "setting": "[5]; [6]", "result": "3.2 × 10^6 CFU/gram of product"},
      {"measurement": "No. of CFU/gram of product at T7 days, C. albicans", "setting": "[5]; [7]", "result": "3.0 × 10^6 CFU/gram of product"},
      {"measurement": "No. of CFU/gram of product at T7 days, C. albicans", "setting": "[5]; [8]", "result": "2.8 × 10^6 CFU/gram of product"},
      {"measurement": "No. of CFU/gram of product at T7 days, C. albicans", "setting": "[5]; [9]", "result": "2.3 × 10^6 CFU/gram of product"},
      {"measurement": "No. of CFU/gram of product at T7 days, C. albicans", "setting": "[5]; [10]", "result": "1.3 × 10^6 CFU/gram of product"},
      {"measurement": "No. of CFU/gram of product at T7 days, C. albicans", "setting": "[5]; [11]", "result": "5.8 × 10^3 CFU/gram of product"},
      {"measurement": "No. of CFU/gram of product at T7 days, C. albicans", "setting": "[5]; [12]", "result": "<200 CFU/gram of product"}
    ]},
    {"smiles": "Cl.c1ccc(CNCCOCc2ccccc2)cc1", "note": "[Compound B]", "values": [
      {"measurement": "No. of CFU/gram of product at T7 days, P. aeruginosa", "setting": "[1]; [13]", "result": "<200 CFU/gram of product"},
      {"measurement": "No. of CFU/gram of product at T7 days, A. niger", "setting": "[2]; [13]", "result": "<200 CFU/gram of product"},
      {"measurement": "No. of CFU/gram of product at T7 days, E. coli", "setting": "[3]; [13]", "result": "<200 CFU/gram of product"},
      {"measurement": "No. of CFU/gram of product at T7 days, E. faecalis", "setting": "[4]; [13]", "result": "<200 CFU/gram of product"},
      {"measurement": "No. of CFU/gram of product at T7 days, C. albicans", "setting": "[5]; [13]", "result": "<200 CFU/gram of product"}
    ]}
  ]
}
